Source: paper PMC2848589, “Raltegravir Is a Potent Inhibitor of XMRV, a Virus Implicated in Prostate Cancer and Chronic Fatigue Syndrome” (PLoS ONE, 2010)
Where a name gives a salt, the structure may show the parent alone.

Key:
XMRV [1] = assay: XMRV replication in LNCaP cells (viral release by RT activity in supernatant); type: cell-based; details: for EC50: read-out: EC50 in LNCaP cells; for EC90: read-out: EC90 in LNCaP cells; for inhibition at 100 µM: read-out: inhibition of XMRV replication
Description: (§1) We tested a total of 45 compounds belonging to different classes of HIV-1 inhibitors, and a few inhibitors of viruses other than retroviruses, for their ability to inhibit XMRV replication in cultured cells. LNCaP and MCF-7 cells were chosen for their ability to support robust in vitro replication of XMRV. […] To determine if a reduction in viral release might be due to toxicity of the compound and not due to specific antiretroviral activity, cellular morphology was monitored every 24 h by microscopic examination, and an MTT [3-(4,5-dimethylthiazol-2-yl)-2,5-diphenyltetrazolium bromide] colorimetric assay was used to measure potential cytotoxicity produced by the compounds. Supernatants were collected every 24 h and assayed for viral release by measuring RT activity. […] For comparison purposes, all compounds evaluated in these studies were also tested against HIV-1LAI in primary human lymphocytes.
Viral release from XMRV-infected LNCaP cells in the presence of increasing concentrations of (A) ZDV (B) TDF (C) RAL and (D) L-000870812, was determined by measuring RT activity in the supernatants. […] Cell viability was checked by microscopy, quantified by the MTT assay, and represented by shaded bars. Data for each compound were derived from an average of at least three independent experiments, each performed in duplicate.
293T cells (ATCC, CRL-11268) were transfected with pXMRV1, an infectious clone of XMRV [2]. Virus released in the supernatant was harvested and titrated by inoculating MCF-7 cells, a breast cancer cell line (ATCC, HTB-22) at 70% confluence, with a series of ten-fold dilutions of XMRV in serum-free medium, followed 36–48 hrs later by fixation of cells in paraformaldehyde and processing for immunofluorescence using a rabbit antiserum developed against inactivated XMRV [2]. […] Virus was diluted in serum-free medium and used to inoculate cells at a multiplicity of infection (MOI) of approximately 3, in the presence of various antiviral compounds as described below. LNCaP, a prostate cancer cell line (ATCC, CRL-1740) and MCF-7 cells were grown to about 50% confluence in DMEM containing 10% heat inactivated fetal bovine serum, […]. Cells were washed twice with Dulbecco's phosphate buffered saline (DPBS, Gibco), and incubated with the viral inoculum for 90 min at 37°C in the presence of 95% air and 5% CO2, cells were washed twice with DPBS, detached with Trypsin-EDTA (0.25% Trypsin; Cellgro), and counted. One thousand cells were added to each well of a 96-well plate, along with an equal volume of medium containing the retroviral inhibitor at 2-fold the desired concentration. […] For controls, wells containing water or DMSO at appropriate concentrations were used.
(§2) Each well was carefully monitored for signs of cellular toxicity due to the inhibitors by microscopic observation every 24 h. In addition, cell viability was measured using the CellTiter 96 AQueous One Solution cell proliferation assay according to the manufacturer (Promega, Madison, Wis). Viral release from the cells was assayed by measuring RT activity in the supernatant. For this, supernatant from each well was collected every 24 h and frozen at −20°C until it was analyzed by RT assay for viral release as described previously. In brief, oligo(dT)·poly(rA) primer-template assays were performed in the presence of radiolabeled [α-^32P]dTTP and Mn^2+. After incubating the viral supernatants with the RT reaction mix for 1 h at 37°C, samples were spotted onto DE81 DEAE cellulose paper (Whatman) and unincorporated label washed away with 2× SSC (1× SSC = 0.15 M NaCl and 0.015 M sodium citrate).

HIV-1LAI = assay: HIV-1 replication in PHA-stimulated peripheral blood mononuclear cells; type: cell-based; details: Human immunodeficiency virus 1, PBMC; for EC50: read-out: HIV-1 in PBM cells EC50; for EC90: read-out: HIV-1 in PBM cells EC90
Description: as §1
as §2, with “citrate). […] Inhibition of viral release as measured on day 6 after inoculation was averaged over 3–5 experiments and plotted. The antiviral EC50 and cytotoxic concentrations (CC50,) was determined from the concentration–response curve using the median effect method. HIV-1 replication assays were performed as described previously using peripheral blood mononuclear cells (PBMC) obtained from the American Red Cross, Atlanta, GA, that were stimulated with phytohemagglutinin (PHA) for 72 hr.” for “citrate).”

XMRV [2] = assay: XMRV replication in MCF-7 cells (viral release by RT activity in supernatant); type: cell-based; details: for EC50 / EC90: MCF7, 144 h; for EC50: read-out: XMRV in MCF-7 cells EC50; for EC90: read-out: XMRV in MCF-7 cells EC90; for therapeutic index (TI, the ratio of CC50/EC50): XMRV, MCF-7 cells; for activity against XMRV (in words): tested up to 100 µM, Figure 1
[3] = Cytotoxicity in PBM cells; type: cell-based; details: human, read-out: HIV-1 in PBM cells CC50
Description: as §2, with “citrate). […] Inhibition of viral release as measured on day 6 after inoculation was averaged over 3–5 experiments and plotted. The antiviral EC50 and cytotoxic concentrations (CC50,) was determined from the concentration–response curve using the median effect method. HIV-1 replication assays were performed as described previously using peripheral blood mononuclear cells (PBMC) obtained from the American Red Cross, Atlanta, GA, that were stimulated with phytohemagglutinin (PHA) for 72 hr.” for “citrate).”

[4] = Cytotoxicity in MCF-7 cells (MTT / CellTiter 96 AQueous One); type: cell-based, human; details: human
Description: as §1
as §2, with “citrate). […] Inhibition of viral release as measured on day 6 after inoculation was averaged over 3–5 experiments and plotted. The antiviral EC50 and cytotoxic concentrations (CC50,) was determined from the concentration–response curve using the median effect method. HIV-1 replication assays were performed as described previously using peripheral blood mononuclear cells (PBMC) obtained from the American Red Cross, Atlanta, GA, that were stimulated with phytohemagglutinin (PHA) for 72 hr.” for “citrate).”

MCF-7 cells = assay: as above; type: cell-based, human
Description: as §1
as §2, with “citrate). […] Inhibition of viral release as measured on day 6 after inoculation was averaged over 3–5 experiments and plotted. The antiviral EC50 and cytotoxic concentrations (CC50,) was determined from the concentration–response curve using the median effect method. HIV-1 replication assays were performed as described previously using peripheral blood mononuclear cells (PBMC) obtained from the American Red Cross, Atlanta, GA, that were stimulated with phytohemagglutinin (PHA) for 72 hr.” for “citrate).”

[5] = peripheral blood mononuclear (PBM) cells
[6] = MCF-7 cells, read-out: XMRV in MCF-7 cells CC50
[7] = XMRV-infected MCF-7 cells, RT activity in supernatant, day 6

SMILES	EC50 (HIV-1LAI)	EC90 (HIV-1LAI)	EC50 (XMRV [2])	EC90 (XMRV [2])	CC50 [3, 5]	CC50 [4]	CC50 [4, 6]	also measured
Cc1cn([C@H]2C[C@H](N=[N+]=[N-])[C@@H](CO)O2)c(=O)[nH]c1=O [3'-Azido-3'-deoxythymidine (ZDV), 3'-Azido-3'-deoxythymidine]	0.0052 µM	0.036 µM	0.11 µM	7.3 µM	> 100 µM	65 µM	–	EC50 (XMRV [1]; LNCaP): 0.14 µM; EC90 (XMRV [1]; LNCaP): 1.1 µM; therapeutic index (TI, the ratio of CC50/EC50) (XMRV [2]): 591
Cc1cn([C@H]2C=C[C@@H](CO)O2)c(=O)[nH]c1=O [Stavudine (D4T), Stavudine]	0.09 µM	0.49 µM	75.6 µM	> 100 µM	> 100 µM	–	> 100 µM	inhibition at 100 µM (XMRV [1]; LNCaP): > 70%
Cc1nnc(C(=O)NC(C)(C)c2nc(C(=O)NCc3ccc(F)cc3)c(O)c(=O)n2C)o1 [Raltegravir (RAL, MK-0518), Raltegravir]	0.0014 µM	0.0089 µM	–	–	–	–	92.3 µM	EC50 (XMRV [1]; XMRV-infected LNCaP cells): 0.03 µM; EC90 (XMRV [1]; XMRV-infected LNCaP cells): 0.46 µM; EC50 (XMRV [2]; [7]): 0.005 µM; EC90 (XMRV [2]; [7]): 3.5 µM; therapeutic index (TI, the ratio of CC50/EC50) (XMRV [2]): 18,460; CC50 [3]: > 100 µM
CC(C)OC(=O)OCOP(=O)(CO[C@H](C)Cn1cnc2c(N)ncnc21)OCOC(=O)OC(C)C [Tenofovir disoproxil fumarate (TDF), Tenofovir disoproxil fumarate]	0.016 µM	0.18 µM	0.24 µM	15.3 µM	17.8 µM	52.2 µM	–	EC50 (XMRV [1]; LNCaP): 0.9 µM; EC90 (XMRV [1]; LNCaP): 4.2 µM; therapeutic index (TI, the ratio of CC50/EC50) (XMRV [2]): 218
Nc1nc2c(ncn2C2COC(CO)O2)c(=O)[nH]1 [9-(β-D-1,3-Dioxolan-4-yl)guanine (DXG), 9-(β-D-1,3-Dioxolan-4-yl)guanine]	–	–	–	–	–	–	–	activity against XMRV (in words) (XMRV [2]): essentially inactive; CC50 (MCF-7 cells): > 100 µM
Nc1ccn([C@H]2C=C[C@@H](CO)O2)c(=O)n1 [D4C]	–	–	–	–	–	–	–	CC50 (MCF-7 cells): > 100 µM
Cc1cn([C@H]2C[C@H](F)[C@@H](CO)O2)c(=O)[nH]c1=O [3'-Fluoro-3'-deoxythymidine (FLT), 3'-Fluoro-3'-deoxythymidine]	0.00018 µM	0.005 µM	7.9 µM	> 100 µM	13.8 µM	75.8 µM	–	inhibition at 100 µM (XMRV [1]; LNCaP): > 70%
CCC[C@@]1(CCc2ccccc2)CC(O)=C([C@H](CC)c2cccc(NS(=O)(=O)c3ccc(C(F)(F)F)cn3)c2)C(=O)O1 [Tipranavir]	0.035 µM	0.17 µM	> 100 µM	> 100 µM	> 100 µM	–	75.6 µM	activity against XMRV (in words) (XMRV [2]): essentially ineffective
Nc1ccn([C@H]2CC[C@@H](CO)O2)c(=O)n1 [Zalcitabine (ddC), Zalcitabine]	0.044 µM	0.31 µM	> 100 µM	> 100 µM	> 100 µM	89.8 µM	–	–
Nc1nc2c(ncn2[C@H]2C=C[C@@H](CO)C2)c(=O)[nH]1 [(-)-carbovir (CBV), (-)-carbovir]	–	–	–	–	–	–	–	inhibition of XMRV replication (XMRV [1]; 100 µM, see Table S1 (cell line not given)): greater than 70%; CC50 (MCF-7 cells): > 100 µM
CC(C)CN(C[C@@H](O)[C@H](Cc1ccccc1)NC(=O)O[C@H]1CCOC1)S(=O)(=O)c1ccc(N)cc1 [Amprenavir]	0.027 µM	0.1 µM	–	> 100 µM	> 100 µM	–	94.1 µM	EC50 (XMRV [2]; [7]): 68 µM
Nc1nc2c(ncn2COCCO)c(=O)[nH]1 [Acyclovir (ACV), Acyclovir]	> 100 µM	> 100 µM	> 100 µM	> 100 µM	> 100 µM	77.6 µM	–	–
